According to patent US20250206732A1, “COMPOUNDS AND METHODS FOR THE TARGETED DEGRADATION OF KRAS” (Arvinas Operations, Inc., priority 2022, published 2025):

Biological target: T1, AsPC-1 HiBiT-KRASG12D (Homo sapiens, UniProt P01116, G12D)
T1 construct: insert the HiBiT tag onto the N-terminus of one or more of the endogenous KRAS alleles; endogenous in cells; host or cells: AsPC-1 (ATCC CRL-1682), CRISPR-Cas9 knock-in clone, one tagged allele
Assay: HiBiT degradation assay (G12D), AsPC-1 HiBiT-KRASG12D cells
Assay type: cell-based
Conditions: 24 hours treatment; for Dmax: ASPC1, AsPC-1 HiBiT-KRASG12D cells, maximum degradation observed; for DC50: AsPC-1 HiBiT-KRASG12D cells, HiBiT luminescence
In short: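 Luminescence read-out of HiBiT-tagged endogenous KRASG12D in AsPC-1 cells after 24 h compound exposure at 37° C; lytic Nano-Glo HiBiT detection, 45 min at room temperature. A parallel alamar blue read (4 h) checked viability, normalized to DMSO-only controls.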

T1 sequence (P01116 1-188 isoform P01116-2 G12D): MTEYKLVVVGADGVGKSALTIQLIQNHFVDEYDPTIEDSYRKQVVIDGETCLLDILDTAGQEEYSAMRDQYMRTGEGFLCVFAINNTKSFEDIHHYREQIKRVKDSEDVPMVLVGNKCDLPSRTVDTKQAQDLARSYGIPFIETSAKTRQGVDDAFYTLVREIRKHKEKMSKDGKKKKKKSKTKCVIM

CCc1cccc2cc(O)cc(-c3ncc4c(N5CC6CCC(C5)N6)nc(OCCN5CCC(F)(CN6CCN(c7cc([C@@H](C(=O)N8C[C@H](O)C[C@H]8C(=O)N[C@@H](C)c8ccc(-c9scnc9C)cc8)C(C)C)on7)C[C@H]6C)CC5)nc4c3F)c12 [Compound 195, (2S,4R)-1-[(2S)-2-{3-[(3R)-4-[(1-{2-[(4-{3,8-diazabicyclo[3.2.1]octan-3-yl}-7-(8-ethyl-3-hydroxynaphthalen-1-yl)-8-fluoropyrido[4,3-d]pyrimidin-2-yl)oxy]ethyl}-4-fluoropiperidin-4-yl)methyl]-3-methylpiperazin-1-yl]-1,2-oxazol-5-yl}-3-methylbutanoyl]-4-hydroxy-N-[(1S)-1-[4-(4-methyl-1,3-thiazol-5-yl)phenyl]ethyl]pyrrolidine-2-carboxamide] gave a Dmax of under 20% and a DC50 of 1 to 3 µM.
CCc1cccc2cc(O)cc(-c3ncc4c(N5CC6CCC(C5)N6)nc(OCCN5CCC(F)(CN6CCN(c7cc([C@@H](C(=O)N8C[C@H](O)C[C@H]8C(=O)N[C@@H](C)c8ccc(-c9scnc9C)cc8)C(C)C)on7)C[C@@H]6C)CC5)nc4c3F)c12 [Compound 196, (2S,4R)-1-[(2S)-2-{3-[(3S)-4-[(1-{2-[(4-{3,8-diazabicyclo[3.2.1]octan-3-yl}-7-(8-ethyl-3-hydroxynaphthalen-1-yl)-8-fluoropyrido[4,3-d]pyrimidin-2-yl)oxy]ethyl}-4-fluoropiperidin-4-yl)methyl]-3-methylpiperazin-1-yl]-1,2-oxazol-5-yl}-3-methylbutanoyl]-4-hydroxy-N-[(1S)-1-[4-(4-methyl-1,3-thiazol-5-yl)phenyl]ethyl]pyrrolidine-2-carboxamide] showed a Dmax of 20 to 60% and a DC50 of 0.6 to 1 µM.
For CCc1cccc2cc(O)cc(-c3ncc4c(N5CC6CCC(C5)N6)nc(OCCN5CCC(F)(CN6CCN(c7cc([C@@H](C(=O)N8C[C@H](O)C[C@H]8C(=O)N[C@@H](C)c8ccc(-c9ccnn9C)cc8)C(C)C)on7)CC6)CC5)nc4c3F)c12 [Compound 197, (2S,4R)-1-[(2S)-2-(3-{4-[(1-{2-[(4-{3,8-diazabicyclo[3.2.1]octan-3-yl}-7-(8-ethyl-3-hydroxynaphthalen-1-yl)-8-fluoropyrido[4,3-d]pyrimidin-2-yl)oxy]ethyl}-4-fluoropiperidin-4-yl)methyl]piperazin-1-yl}-1,2-oxazol-5-yl)-3-methylbutanoyl]-4-hydroxy-N-[(1S)-1-[4-(1-methyl-1H-pyrazol-5-yl)phenyl]ethyl] pyrrolidine-2-carboxamide], the Dmax was under 20% and the DC50 was 1 to 3 µM.
C#Cc1c(F)ccc2cc(O)cc(-c3ncc4c(N5CC6CCC(C5)N6)nc(OCCN5CCC(F)(CN6CCN(c7cc([C@H](C(=O)N8C[C@H](O)C[C@H]8C(=O)N[C@@H](C)c8ccc(-c9ccnn9C)cc8)C(C)C)on7)CC6)CC5)nc4c3F)c12 [Compound 198, (2S,4R)-1-[(2R)-2-(3-{4-[(1-{2-[(4-{3,8-diazabicyclo[3.2.1]octan-3-yl}-7-(8-ethynyl-7-fluoro-3-hydroxynaphthalen-1-yl)-8-fluoropyrido[4,3-d]pyrimidin-2-yl)oxy]ethyl}-4-fluoropiperidin-4-yl)methyl]piperazin-1-yl}-1,2-oxazol-5-yl)-3-methylbutanoyl]-4-hydroxy-N-[(1S)-1-[4-(1-methyl-1H-pyrazol-5-yl)phenyl]ethyl]pyrrolidine-2-carboxamide] was tested, and the Dmax was 80 to 100% and the DC50 was under 0.6 µM.
CCc1cccc2cc(O)cc(-c3ncc4c(N5CC6CCC(C5)N6)nc(OCCN5CCC(F)(CN6CCN(c7cc([C@H](C(=O)N8C[C@H](O)C[C@H]8C(=O)N[C@@H](C)c8ccc(-c9ccnn9C)cc8)C(C)C)on7)CC6)CC5)nc4c3F)c12 [Compound 199, (2S,4R)-1-[(2R)-2-(3-{4-[(1-{2-[(4-{3,8-diazabicyclo[3.2.1]octan-3-yl}-7-(8-ethyl-3-hydroxynaphthalen-1-yl)-8-fluoropyrido[4,3-d]pyrimidin-2-yl)oxy]ethyl}-4-fluoropiperidin-4-yl)methyl]piperazin-1-yl}-1,2-oxazol-5-yl)-3-methylbutanoyl]-4-hydroxy-N-[(1S)-1-[4-(1-methyl-1H-pyrazol-5-yl)phenyl]ethyl] pyrrolidine-2-carboxamide] showed a Dmax of 80 to 100% and a DC50 of under 0.6 µM.
